Values quoted from earlier work in patent publication US20070020218A1, “Composition and method for the treatment of psoriasis” (priority 2005, published 2007).

Key:
degenerative arthritis = settings: 2,250 mg daily for six weeks
knee osteoarthritis = settings: for persistence of benefits after treatment was stopped: followed for an additional 60 days after the 90 days of treatment; for reduction of symptoms: over 90 days of treatment
[1] = test system: osteoarthritis of the knee; settings: after 4 weeks, 252 people
[2] = oral
arthritis of the knee = settings: 12 months, 104 individuals
[3] = test system: osteoarthritis of the knee; settings: 85 people with osteoarthritis of the knee

For `CS(C)(=O)=O` [MSM, Methylsulfonyl methane], the “reduction in pain on average” value (degenerative arthritis) is listed as 82%.
For `N[C@H]1C(O)O[C@H](CO)[C@@H](O)[C@@H]1O.O=S(=O)(O)O` (stereo partly drawn) [glucosamine sulfate], the “persistence of benefits after treatment was stopped” value (knee osteoarthritis) is listed as “lasted for the full 60 days”, the reduction of symptoms (knee osteoarthritis) is listed as “equally effective” and the “pain and movement against placebo” value [1] is listed as “significantly reduced pain and improved movement”.
For `CN1C(C(=O)Nc2ccccn2)=C(O)c2ccccc2S1(=O)=O` [piroxicam, reference compound], the “persistence of benefits after treatment was stopped” value (knee osteoarthritis) is listed as “rapidly disappeared” and the reduction of symptoms (knee osteoarthritis) is listed as “equally effective”.
For chondroitin sulfate, the chondroitin absorbed intact [2] is given as “up to 15%”, the “trial outcome against placebo” value (arthritis of the knee) is given as “Good results” and the “participants with improved results” value [3] is given as 69%.
